Test results from patent US10588317B2, “Isoxazoline-substituted benzamides and analogues as insecticides” (priority 2015, dated 2020).
Like-named read-outs stand apart in the source and are kept apart here.

Tests used:
Format in all cases: in vivo
Plutella xylostella = Plutella xylostella (diamond back moth), artificial diet; conditions: 120 h, read-out: effect in at least one of the two categories (mortality or growth inhibition); for percent effect (mortality or growth inhibition) at 200 ppm: application rate 200 ppm, L2 larvae, 5 days after infestation
How it was run: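 Artificial diet in 24-well plates treated with aqueous test solutions made from 10'000 ppm DMSO stocks, dried, then infested with L2 larvae (10 to 15 per well). Mortality and growth inhibition scored against untreated samples 5 days after infestation; activity cut-off at least 80% in either category at 200 ppm.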

Spodoptera littoralis = Spodoptera littoralis (Egyptian cotton leaf worm), sprayed cotton leaf discs; conditions: foliar, 72 h, read-out: control (mortality, anti-feeding effect, growth inhibition)
How it was run: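 Cotton leaf discs on agar sprayed with aqueous test solutions made from 10'000 ppm DMSO stock; after drying, infested with five L1 larvae. Mortality, anti-feeding and growth inhibition scored versus untreated samples 3 days after infestation; control counted when any category exceeds untreated.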

Thrips tabaci = Thrips tabaci (onion thrips): feeding/contact activity; conditions: 144 h
Protocol: (§1) Sunflower leaf discs were placed on agar in 24-well microtiter plates and sprayed with aqueous test solutions prepared from 10'000 ppm DMSO stock solutions. After drying the leaf discs were infested with a Thrips population of mixed ages. The samples were assessed for mortality 6 days after infestation.

Myzus persicae = Myzus persicae (green peach aphid): feeding/contact activity; conditions: 144 h
Protocol: Sunflower leaf discs were placed onto agar in a 24-well microtiter plate and sprayed with aqueous test solutions prepared from 10'000 ppm DMSO stock solutions. After drying, the leaf discs were infested with an aphid population of mixed ages. The samples were assessed for mortality 6 days after infestation.

Euschistus heros = Euschistus heros (neotropical brown stink bug), sprayed soybean leaves; conditions: 120 h, read-out: effect in at least one of the two categories (mortality or growth inhibition); for percent effect (mortality or growth inhibition) at 200 ppm: application rate 200 ppm, N2 nymphs, 5 days after infestation
How it was run: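 Soybean leaves on agar sprayed with aqueous dilutions of DMSO stocks, dried, then infested with N2 nymphs. Mortality and growth inhibition scored against untreated samples 5 days after infestation; application rate 200 ppm.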

Diabrotica balteata = Diabrotica balteata (corn root worm), sprayed maize sprouts; conditions: 96 h, read-out: effect in at least one of the two categories (mortality or growth inhibition); for percent effect (mortality or growth inhibition) at 200 ppm: application rate 200 ppm, L2 larvae, 4 days after infestation
How it was run: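 Maize sprouts on agar sprayed with aqueous dilutions of DMSO stocks, dried, then infested with L2 larvae (6–10 per well). Mortality and growth inhibition scored against untreated controls 4 days after infestation, at 200 ppm application rate.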

Tetranychus urticae = Tetranychus urticae (two-spotted spider mite): feeding/contact activity; conditions: 192 h
Protocol: as §1, with “Bean” for “Sunflower”, “discs” for “discs were placed”, “were” for “and”, “mite” for “Thrips”, “on mixed population (mobile stages) 8” for “6”

[1] = application rate 200 ppm, L1 larvae, 3 days after infestation
[2] = application rate 200 ppm, Thrips population of mixed ages, 6 days after infestation, read-out: mortality
[3] = application rate 200 ppm, aphid population of mixed ages, 6 days after infestation, read-out: mortality
[4] = application rate 200 ppm, mixed population (mobile stages), 8 days after infestation, read-out: mortality

Cc1cc(C2=NO[C@@](c3cc(Cl)c(Cl)c(Cl)c3)(C(F)(F)F)C2)ccc1C(=O)NC1CON(S(=O)(=O)F)C1 (stereo partly drawn) [Compound A106, 4-[[2-methyl-4-[(5S)-5-(3,4,5-trichlorophenyl)-5-(trifluoromethyl)-4H-isoxazol-3-yl]benzoyl]amino]isoxazolidine-2-sulfonyl fluoride]
≥ 80%: percent control (mortality or growth inhibition) at 200 ppm (Plutella xylostella) | mortality at 200 ppm (Spodoptera littoralis) | mortality at 200 ppm (Thrips tabaci) | mortality at 200 ppm (Myzus persicae) | percent control (mortality or growth inhibition) at 200 ppm (Euschistus heros) | percent control (mortality or growth inhibition) at 200 ppm (Diabrotica balteata) | mortality at 200 ppm (Tetranychus urticae)

Cc1cc(C2=NO[C@@](c3cc(F)cc(C(F)(F)F)c3)(C(F)(F)F)C2)ccc1C(=O)N[C@@H]1CON(S(=O)(=O)N(C)C)C1 [Compound A169]
≥ 80%: percent effect (mortality or growth inhibition) at 200 ppm (Plutella xylostella) | mortality at 200 ppm (Spodoptera littoralis; [1]) | mortality at 200 ppm (Thrips tabaci; [2]) | mortality at 200 ppm (Myzus persicae; [3]) | percent effect (mortality or growth inhibition) at 200 ppm (Euschistus heros) | percent effect (mortality or growth inhibition) at 200 ppm (Diabrotica balteata) | mortality at 200 ppm (Tetranychus urticae; [4])

Cc1cc(C2=NO[C@@](c3cc(Cl)c(OC(F)F)c(Cl)c3)(C(F)(F)F)C2)ccc1C(=O)N[C@@H]1CON(S(C)(=O)=O)C1 [Compound A204, 4-[(5S)-5-[3,5-dichloro-4-(difluoromethoxy)phenyl]-5-(trifluoromethyl)-4H-1,2-oxazol-3-yl]-2-methyl-N-[(4S)-2-methylsulfonyl-1,2-oxazolidin-4-yl]benzamide]
≥ 80%: percent effect (mortality or growth inhibition) at 200 ppm (Plutella xylostella) | mortality at 200 ppm (Spodoptera littoralis; [1]) | mortality at 200 ppm (Thrips tabaci; [2]) | mortality at 200 ppm (Myzus persicae; [3]) | percent effect (mortality or growth inhibition) at 200 ppm (Euschistus heros) | percent effect (mortality or growth inhibition) at 200 ppm (Diabrotica balteata) | mortality at 200 ppm (Tetranychus urticae; [4])

Cc1cc(C2=NOC(c3cc(Cl)c(C#N)c(Cl)c3)(C(F)(F)F)C2)ccc1C(=O)NC1CON(S(C)(=O)=O)C1 (stereo not shown) [Compound A50]
≥ 80%: percent effect (mortality or growth inhibition) at 200 ppm (Plutella xylostella) | mortality at 200 ppm (Spodoptera littoralis; [1]) | mortality at 200 ppm (Thrips tabaci; [2]) | mortality at 200 ppm (Myzus persicae; [3]) | percent effect (mortality or growth inhibition) at 200 ppm (Euschistus heros) | percent effect (mortality or growth inhibition) at 200 ppm (Diabrotica balteata) | mortality at 200 ppm (Tetranychus urticae; [4])

Cc1cc(C2=NO[C@](c3cc(Cl)cc(C(F)(F)F)c3)(C(F)(F)F)C2)ccc1C(=O)N[C@H]1CON(S(=O)(=O)CCl)C1 [Compound A217]
≥ 80%: percent effect (mortality or growth inhibition) at 200 ppm (Plutella xylostella) | mortality at 200 ppm (Spodoptera littoralis; [1]) | mortality at 200 ppm (Thrips tabaci; [2]) | mortality at 200 ppm (Myzus persicae; [3]) | percent effect (mortality or growth inhibition) at 200 ppm (Euschistus heros) | percent effect (mortality or growth inhibition) at 200 ppm (Diabrotica balteata) | mortality at 200 ppm (Tetranychus urticae; [4])

Cc1cc(C2=NO[C@@](c3cc(Cl)cc(Cl)c3)(C(F)(F)F)C2)ccc1C(=O)N[C@@H]1CON(S(=O)(=O)C2CC2)C1 [Compound A230]
≥ 80%: percent effect (mortality or growth inhibition) at 200 ppm (Plutella xylostella) | mortality at 200 ppm (Spodoptera littoralis; [1]) | mortality at 200 ppm (Thrips tabaci; [2]) | mortality at 200 ppm (Myzus persicae; [3]) | percent effect (mortality or growth inhibition) at 200 ppm (Euschistus heros) | percent effect (mortality or growth inhibition) at 200 ppm (Diabrotica balteata) | mortality at 200 ppm (Tetranychus urticae; [4])

Cc1cc(C2=NO[C@@](c3cc(Cl)c(F)c(Cl)c3)(C(F)(F)F)C2)ccc1C(=O)N[C@@H]1CON(S(=O)(=O)F)C1 [Compound A213, (4S)-4-[[4-[(5S)-5-(3,5-dichloro-4-fluorophenyl)-5-(trifluoromethyl)-4H-1,2-oxazol-3-yl]-2-methylbenzoyl]amino]-1,2-oxazolidine-2-sulfonyl fluoride]
≥ 80%: percent control (mortality or growth inhibition) at 200 ppm (Plutella xylostella) | mortality at 200 ppm (Spodoptera littoralis) | mortality at 200 ppm (Thrips tabaci) | mortality at 200 ppm (Myzus persicae) | percent control (mortality or growth inhibition) at 200 ppm (Euschistus heros) | percent control (mortality or growth inhibition) at 200 ppm (Diabrotica balteata) | mortality at 200 ppm (Tetranychus urticae)

CNS(=O)(=O)N1C[C@@H](NC(=O)c2ccc(C3=NO[C@](c4cc(F)cc(C(F)(F)F)c4)(C(F)(F)F)C3)cc2C)CO1 [Compound A180]
≥ 80%: percent effect (mortality or growth inhibition) at 200 ppm (Plutella xylostella) | mortality at 200 ppm (Spodoptera littoralis; [1]) | mortality at 200 ppm (Thrips tabaci; [2]) | mortality at 200 ppm (Myzus persicae; [3]) | percent effect (mortality or growth inhibition) at 200 ppm (Euschistus heros) | percent effect (mortality or growth inhibition) at 200 ppm (Diabrotica balteata) | mortality at 200 ppm (Tetranychus urticae; [4])

Cc1cc(C2=NO[C@@](c3cc(Cl)c(F)c(Cl)c3)(C(F)(F)F)C2)ccc1C(=O)N[C@H]1CON(S(=O)(=O)N(C)CC(F)(F)F)C1 [Compound A150, 4-[(5S)-5-(3,5-dichloro-4-fluoro-phenyl)-5-(trifluoromethyl)-4H-isoxazol-3-yl]-2-methyl-N-[(4R)-2-[methyl(2,2,2-trifluoroethyl)sulfamoyl]isoxazolidin-4-yl]benzamide]
≥ 80%: percent effect (mortality or growth inhibition) at 200 ppm (Plutella xylostella) | mortality at 200 ppm (Spodoptera littoralis; [1]) | mortality at 200 ppm (Thrips tabaci; [2]) | mortality at 200 ppm (Myzus persicae; [3]) | percent effect (mortality or growth inhibition) at 200 ppm (Euschistus heros) | percent effect (mortality or growth inhibition) at 200 ppm (Diabrotica balteata) | mortality at 200 ppm (Tetranychus urticae; [4])

Cc1cc(C2=NO[C@@](c3cc(Cl)c(Cl)c(Cl)c3)(C(F)(F)F)C2)ccc1C(=O)NC1CON(S(=O)(=O)N(C)Cc2ccccc2)C1 (stereo partly drawn) [Compound A86, N-[2-[benzyl(methyl)sulfamoyl]isoxazolidin-4-yl]-2-methyl-4-[(5S)-5-(3,4,5-trichlorophenyl)-5-(trifluoromethyl)-4H-isoxazol-3-yl]benzamide]
≥ 80%: percent effect (mortality or growth inhibition) at 200 ppm (Plutella xylostella) | mortality at 200 ppm (Spodoptera littoralis; [1]) | mortality at 200 ppm (Thrips tabaci; [2]) | mortality at 200 ppm (Myzus persicae; [3]) | percent effect (mortality or growth inhibition) at 200 ppm (Euschistus heros) | percent effect (mortality or growth inhibition) at 200 ppm (Diabrotica balteata) | mortality at 200 ppm (Tetranychus urticae; [4])

Cc1cc(C2=NO[C@@](c3cc(Cl)c(F)c(Cl)c3)(C(F)(F)F)C2)ccc1C(=O)NC1CON(S(=O)(=O)N(C)C(=O)N(C)C)C1 (stereo partly shown) [Compound A74]
≥ 80%: percent effect (mortality or growth inhibition) at 200 ppm (Plutella xylostella) | mortality at 200 ppm (Spodoptera littoralis; [1]) | mortality at 200 ppm (Thrips tabaci; [2]) | mortality at 200 ppm (Myzus persicae; [3]) | percent effect (mortality or growth inhibition) at 200 ppm (Euschistus heros) | percent effect (mortality or growth inhibition) at 200 ppm (Diabrotica balteata) | mortality at 200 ppm (Tetranychus urticae; [4])

CC(C)(C)OC(=O)NS(=O)(=O)N1C[C@@H](NC(=O)c2ccc(C3=NO[C@@](c4cc(Cl)cc(Cl)c4)(C(F)(F)F)C3)cc2Cl)CO1 [Compound A151, tert-butyl N-[(4R)-4-[[2-chloro-4-[(5S)-5-(3,5-dichlorophenyl)-5-(trifluoromethyl)-4H-isoxazol-3-yl]benzoyl]amino]isoxazolidin-2-yl]sulfonylcarbamate]
≥ 80%: percent effect (mortality or growth inhibition) at 200 ppm (Plutella xylostella) | mortality at 200 ppm (Spodoptera littoralis; [1]) | mortality at 200 ppm (Thrips tabaci; [2]) | mortality at 200 ppm (Myzus persicae; [3]) | percent effect (mortality or growth inhibition) at 200 ppm (Euschistus heros) | percent effect (mortality or growth inhibition) at 200 ppm (Diabrotica balteata) | mortality at 200 ppm (Tetranychus urticae; [4])

Cc1cc(C2=NO[C@@](c3cc(Cl)cc(Cl)c3)(C(F)(F)F)C2)ccc1C(=O)N[C@H]1CON(S(=O)(=O)N(C)C2CC2)C1 [Compound A156]
≥ 80%: percent effect (mortality or growth inhibition) at 200 ppm (Plutella xylostella) | mortality at 200 ppm (Spodoptera littoralis; [1]) | mortality at 200 ppm (Thrips tabaci; [2]) | mortality at 200 ppm (Myzus persicae; [3]) | percent effect (mortality or growth inhibition) at 200 ppm (Euschistus heros) | percent effect (mortality or growth inhibition) at 200 ppm (Diabrotica balteata) | mortality at 200 ppm (Tetranychus urticae; [4])

Cc1cc(C2=NO[C@](c3cc(Cl)cc(C(F)F)c3)(C(F)(F)F)C2)ccc1C(=O)N[C@H]1CON(S(=O)(=O)N(C)C)C1 [Compound A186]
≥ 80%: percent effect (mortality or growth inhibition) at 200 ppm (Plutella xylostella) | mortality at 200 ppm (Spodoptera littoralis; [1]) | mortality at 200 ppm (Thrips tabaci; [2]) | mortality at 200 ppm (Myzus persicae; [3]) | percent effect (mortality or growth inhibition) at 200 ppm (Euschistus heros) | percent effect (mortality or growth inhibition) at 200 ppm (Diabrotica balteata) | mortality at 200 ppm (Tetranychus urticae; [4])

O=C(N[C@H]1CON(S(=O)(=O)NC2CC2)C1)c1ccc(C2=NO[C@@](c3cc(Cl)cc(Cl)c3)(C(F)(F)F)C2)cc1Cl [Compound A154]
≥ 80%: percent effect (mortality or growth inhibition) at 200 ppm (Plutella xylostella) | mortality at 200 ppm (Spodoptera littoralis; [1]) | mortality at 200 ppm (Thrips tabaci; [2]) | mortality at 200 ppm (Myzus persicae; [3]) | percent effect (mortality or growth inhibition) at 200 ppm (Euschistus heros) | percent effect (mortality or growth inhibition) at 200 ppm (Diabrotica balteata) | mortality at 200 ppm (Tetranychus urticae; [4])

Cc1cc(C2=NO[C@](c3cc(Cl)cc(C(F)(F)F)c3)(C(F)(F)F)C2)ccc1C(=O)N[C@H]1CON(S(=O)(=O)CF)C1 [Compound A218]
≥ 80%: percent effect (mortality or growth inhibition) at 200 ppm (Plutella xylostella) | mortality at 200 ppm (Spodoptera littoralis; [1]) | mortality at 200 ppm (Thrips tabaci; [2]) | mortality at 200 ppm (Myzus persicae; [3]) | percent effect (mortality or growth inhibition) at 200 ppm (Euschistus heros) | percent effect (mortality or growth inhibition) at 200 ppm (Diabrotica balteata) | mortality at 200 ppm (Tetranychus urticae; [4])
